Series [1] deals with EqGGT (Equus caballus, UniProt A0A9L0SYL6). The experiment in a line: GGT activity assay (colorimetric, GpNA donor / glycyl-glycine acceptor), IC50. Format: biochemical, horse. Here is the method: (§1) GGT activity assay: GGT activity was determined by a colorimetric test. The analysis buffer contains 100 mM Tris-HCl pH 7.8 or PBS 1X pH 7.4. Each reaction contains 1 mM of γ-glutamyl-para-nitroanilide (GpNA) as a donor substrate and 40 mM glycyl-glycine (glygly) as an acceptor substrate. The enzyme GGT purified from murine tissues or human cells, or from equine sources (purchased from Sigma) was added at the end to start the test. The formation of the product, p-nitroaniline, was continuously monitored at room temperature at 405 nm using a Bio-Rad 680 microplate reader with the Microplate Manager 5.2 software (Bio-Rad). One unit of GGT activity was defined as the amount of GGT that released 1 µmοl of p-nitroaniline/min at room temperature. The molecules tested as inhibitors, Erg, DON and DTT were purchased by Sigma Aldrich.
Sequence of EqGGT (A0A9L0SYL6 entry or part of it): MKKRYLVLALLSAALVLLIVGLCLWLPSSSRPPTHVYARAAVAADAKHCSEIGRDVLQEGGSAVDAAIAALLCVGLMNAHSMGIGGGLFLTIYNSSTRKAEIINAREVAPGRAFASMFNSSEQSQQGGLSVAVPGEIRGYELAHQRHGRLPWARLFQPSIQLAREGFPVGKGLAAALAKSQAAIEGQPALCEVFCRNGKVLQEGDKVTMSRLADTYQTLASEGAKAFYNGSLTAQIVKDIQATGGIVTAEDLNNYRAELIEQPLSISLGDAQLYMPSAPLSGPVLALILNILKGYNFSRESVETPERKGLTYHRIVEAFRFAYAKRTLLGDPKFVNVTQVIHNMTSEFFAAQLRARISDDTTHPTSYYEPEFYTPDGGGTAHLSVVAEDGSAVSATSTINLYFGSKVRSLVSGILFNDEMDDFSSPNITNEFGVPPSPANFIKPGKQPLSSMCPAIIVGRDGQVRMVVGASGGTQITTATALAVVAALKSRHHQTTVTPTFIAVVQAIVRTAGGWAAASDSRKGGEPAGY
(§2) The enzymatic activity assays were carried out using the Tate & Meister spectrophotometric assay, using the γ-glutamyl-para-nitroanilide chromogen (GpNA) as a donor substrate, glycyl-glycine as a substrate and a purified commercial GGT solution as a biocatalyst from horse (EqGGT) with a high % identity with the human one. These assays were also performed in the presence of GGT isolated directly from the hepatic mouse tissues and/or from human cell cultures (hGGT). The inhibition of EqGGT and hGGT by 5-thio and ovothiol A was compared with that of Erg and the GGT DON commercial inhibitor. […] Instead, the already known GGT inhibitors are toxic at much lower concentrations.

The target of series [2] is GGT (Equus caballus, UniProt A0A9L0SYL6). Nature of the series: Kinetics of GGT inhibition (Ki) varying donor GpNA or acceptor Gly-Gly concentration. Type of series: biochemical, horse. Particulars: for type of inhibition: both with respect to the acceptor substrate and to the donor substrate, Vmax decreases, km almost unchanged; for Ki: average of Michaelis-Menten and Lineweaver-Burk. As to the method:
as §1, §2
The inhibition constants Ki and GGT inactivation rate for 5-thio and ovothiol A were determined by varying both the concentrations of the GpNA donor substrate and maintaining the Gly-Gly acceptor concentrations fixed and vice versa, as shown in Figure 2. Ki (dissociation constant related to E) was calculated as a function of Vmax. For all the compounds the Vmax decreases as the concentration of inhibitor increases, while the km remains almost unchanged.

In series [3] the test system is HEK293. The experiment in a line: Cell toxicity in human cell lines. Type of series: cell-based. The following applies: up to concentrations of 200 µM; HEK293 (renal embryonic origin).
Series [4] relates to keratinocytes HaCat. The experiment in a line: Cell toxicity in human cell lines. Format: cell-based. The following applies: up to concentrations of 200 µM.
Setting [5] is: read-out: Ki (GpNA), varying donor substrate GpNA, Gly-Gly fixed.

Like-named read-outs stand apart in the source and are kept apart here.

Sequence of GGT (A0A9L0SYL6 entry or part of it): as above

On to `NC(Cc1[nH]cnc1SSc1nc[nH]c1CC(N)C(=O)O)C(=O)O` (stereo not shown), for which the IC50 in series [1] (concentration inducing 50% inhibition of GGT activity, 1 mM GpNA, 40 mM glycyl-glycine, ovothiol A and 5-thio as disulfide, read-out: IC50) came to 13 µM. The “times more active than Erg and DON in inhibiting GGT activity” value in series [1] (disulfide forms) is 10-20 times. Further, in series [2], the type of inhibition result was “non-competitive inhibitors”. Moreover, the inhibition constant (Ki) in series [2] (varying acceptor substrate Gly-Gly, GpNA fixed, read-out: Ki (gly-gly)) stood at 17.4 ± 6.1 µM; in series [2] (varying donor substrate GpNA, Gly-Gly fixed, read-out: Ki (GpNA)), 6.9 ± 2.91 µM. Moreover, the cell toxicity entry in series [3] and in series [4] was “no cell toxicity” in each case.
With `[N-]=[N+]=CC(=O)CC[C@H](N)C(=O)O` [DON, 6-diazo-5-oxo norleucine, reference compound], the half-maximal inhibitory concentration (IC50) in series [1] is 250 µM. The inhibitory constant (Ki) in series [2] (setting [5]) worked out at 156 ± 15.3 µM; in series [2] (read-out: Ki (gly-gly), varying acceptor substrate Gly-Gly, GpNA fixed), 200 ± 62.7 µM.
As for `C[N+](C)(C)C(Cc1cnc(S)[nH]1)C(=O)[O-]` (stereo not drawn) [Erg, N-alpha-trimethyl-2-thiohistidine, reference compound], the half-maximal inhibitory concentration (IC50) in series [1] (concentration inducing 50% inhibition of GGT activity, 1 mM GpNA, 40 mM glycyl-glycine, ovothiol A and 5-thio as disulfide) stood at 277 µM. The type of inhibition result in series [2] was “non-competitive inhibitors”. Besides, the inhibition constant (Ki) in series [2] (setting [5]) was 229 ± 53.9 µM.

Usually IC50 stands for the point on the concentration scale where inhibition reaches its midpoint. For orientation: Ki means a dissociation constant, usually derived from enzyme kinetics or from competition with a known ligand.

The record behind these values is patent publication EP3666760B1, “5-THIOISTIDINE COMPOUNDS AND METHYLATED DERIVATIVES (OVOTHIOLS) AS INHIBITORS OF GAMMA-GLUTAMYL-TRANSPEPTIDASE (GGT) ACTIVITY” (Stazione Zoologica "Anton Dohrn", priority 2018, dated 2020).
